Measured values from PMC10686828, “DMSOP-cleaving enzymes are diverse and widely distributed in marine microorganisms” (Nature Microbiology, 2023).

Experiments:
[1] = target: T1, DddY (Acinetobacter bereziniae) (Acinetobacter bereziniae, UniProt N8X9V6); experiment: HPLC of DMSO and acrylate; format: biochemical; conditions: 5 mM DMSOP, pH 8.0, 30 °C
T1 construct: gene F963_02809; pET-22b, C-terminal His tag, E. coli BL21(DE3); Ni-NTA and gel filtration
T1 sequence (N8X9V6 22-401 limits assumed): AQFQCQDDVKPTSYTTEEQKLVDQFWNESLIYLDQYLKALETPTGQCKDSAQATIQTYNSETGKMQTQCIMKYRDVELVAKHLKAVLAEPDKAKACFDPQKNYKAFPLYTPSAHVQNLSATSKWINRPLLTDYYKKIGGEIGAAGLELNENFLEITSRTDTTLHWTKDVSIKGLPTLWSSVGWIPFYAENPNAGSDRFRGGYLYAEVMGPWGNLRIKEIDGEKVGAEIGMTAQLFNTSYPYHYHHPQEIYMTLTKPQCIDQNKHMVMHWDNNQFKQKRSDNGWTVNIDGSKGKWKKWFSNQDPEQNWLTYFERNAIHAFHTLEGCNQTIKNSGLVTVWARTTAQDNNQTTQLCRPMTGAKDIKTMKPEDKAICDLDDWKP

DddL = tested on: T2, DddL; experiment: HPLC of acrylate, initial rates, non-linear fit; format: biochemical; conditions: pH 8, 30 °C
T2 construct: pET-22b, C-terminal His tag, E. coli BL21(DE3)

For `C[S+](C)(=O)CCC(=O)[O-]` [DMSOP], the “HPLC of DMSO and acrylate” value [1] was “purified DddY proteins yielded DMSO and acrylate from DMSOP” and the Km (DddL) was 65 ± 10.9 mM.
